Key:
[1] = system: normal human keratinocytes on laminin V; assay: Adhesion of normal human keratinocytes on laminin V (colorimetric crystal violet adherence test); format: cell-based; details: manganese chloride 0.5 mM, 45 minutes
Method: The culture medium employed was the defined medium for keratinocyte culture 154 (+additive HKGS) manufactured by Cascade Inc. (USA) and marketed by Tebu (France) containing 0.2 mM of CaCl2, pH 7.2 to 7.4. The keratinocytes were obtained according to the technique described by Boyce and Ham (Boyce S T, Ham R G, J. Invest. Dermatol., 1983, 81, 33s-40s). Pieces of human skin obtain from human prepuces (circumcision) were treated in a manner to isolate their basal human keratinocytes. 3·10^4 live cells were then seeded per cm^2 on 25-cm^2 tissue culture dishes (Coming, Polylabo, France). The keratinocytes were cultured at 37° C. in an incubator with CO2 (5% of CO2, 95% of air and 98% humidity). The medium was changed every two days. Subculture took place when the cells reached subconfluence. The cell layer was then rinsed with PBS, then the cells were trypsinated using the conventional trypsination technique (Trypsin-EDTA (0.05-0.02%) at 37° C.). The cells were then seeded in 75-cm^2 culture dishes. Collagen IV (Becton Dickinson, France), fibronectin (Becton Dickinson, France) and laminin 5, purified in the laboratory (Pousselle P. et al., J. Cell. Biol., 1991, 114(3); 567-576) were used in our experiments. […] An absorbance reading was performed at 570 nm using an ELISA plate reader. […] We then calculated the means of the three absorbance values for each of the triplicates. […]

[2] = system: normal human keratinocytes on collagen IV; assay: Adhesion of normal human keratinocytes on collagen IV (colorimetric crystal violet adherence test); format: cell-based; details: manganese chloride 0.5 mM, 45 minutes
Method: The culture medium employed was the defined medium for keratinocyte culture 154 (+additive HKGS) manufactured by Cascade Inc. (USA) and marketed by Tebu (France) containing 0.2 mM of CaCl2, pH 7.2 to 7.4. The keratinocytes were obtained according to the technique described by Boyce and Ham (Boyce S T, Ham R G, J. Invest. Dermatol., 1983, 81, 33s-40s). Pieces of human skin obtain from human prepuces (circumcision) were treated in a manner to isolate their basal human keratinocytes. 3·10^4 live cells were then seeded per cm^2 on 25-cm^2 tissue culture dishes (Coming, Polylabo, France). The keratinocytes were cultured at 37° C. in an incubator with CO2 (5% of CO2, 95% of air and 98% humidity). The medium was changed every two days. Subculture took place when the cells reached subconfluence. The cell layer was then rinsed with PBS, then the cells were trypsinated using the conventional trypsination technique (Trypsin-EDTA (0.05-0.02%) at 37° C.). The cells were then seeded in 75-cm^2 culture dishes. Collagen IV (Becton Dickinson, France), fibronectin (Becton Dickinson, France) and laminin 5, purified in the laboratory (Pousselle P. et al., J. Cell. Biol., 1991, 114(3); 567-576) were used in our experiments. […] An absorbance reading was performed at 570 nm using an ELISA plate reader. […] We then calculated the means of the three absorbance values for each of the triplicates.

With Manganese chloride [MnCl2] the “% adherence (cells alone = 100%)” value ([1]; Laminin 5 1.5 μg/ml) was 109%, the “% adherence (cells alone = 100%)” value ([1]; Laminin 5 3 μg/ml) was 97% and the “% adherence (cells alone = 100%)” value ([2]; Collagen IV 10 μg/ml) was 280%. The “% adherence (cells alone = 100%)” value ([2]; Collagen IV 20 μg/ml) was 357%.
